Data published in PubChem BioAssay AID1963830 (Molecular Pharmacology Branch, DTP, NCI, 2024).

Test system: 922993-354-T-J3-PDC complex spheroid viability
Experiment: Anticancer human tumor 922993-354-T-J3-PDC patient-derived endometrial carcinoma cell line growth inhibition [POLQ]
Details: for IC50: curve of first compound; for viability, T/C: stronger effect = lower value
In short: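 PDC + HUVEC + MSC complex spheroids; POLQ inhibitors ± partner drugs; top conc. at/near clinical Cmax, else 10 microM (SN-38 1 microM), half-log dilutions; 37 degrees C, 5% CO2.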

[1] = second compound 0.0316 µM, first compound 0.0316 µM
[2] = second compound 0.0316 µM, first compound 0.1 µM
[3] = second compound 0.0316 µM, first compound 0.316 µM
[4] = second compound 0.0316 µM, first compound 1 µM
[5] = second compound 0.0316 µM, first compound 3.16 µM
[6] = second compound 0.0316 µM, first compound 10 µM
[7] = second compound 0.1 µM, first compound 0.0316 µM
[8] = second compound 0.1 µM, first compound 0.1 µM
[9] = second compound 0.1 µM, first compound 0.316 µM
[10] = second compound 0.1 µM, first compound 1 µM
[11] = second compound 0.1 µM, first compound 3.16 µM
[12] = second compound 0.1 µM, first compound 10 µM
[13] = second compound 0.316 µM, first compound 0.0316 µM
[14] = second compound 0.316 µM, first compound 0.1 µM
[15] = second compound 0.316 µM, first compound 0.316 µM
[16] = second compound 0.316 µM, first compound 1 µM
[17] = second compound 0.316 µM, first compound 3.16 µM
[18] = second compound 0.316 µM, first compound 10 µM
[19] = second compound 1 µM, first compound 0.0316 µM
[20] = second compound 1 µM, first compound 0.1 µM
[21] = second compound 1 µM, first compound 0.316 µM
[22] = second compound 1 µM, first compound 1 µM
[23] = second compound 1 µM, first compound 3.16 µM
[24] = second compound 1 µM, first compound 10 µM
[25] = second compound 3.16 µM, first compound 0.0316 µM
[26] = second compound 3.16 µM, first compound 0.1 µM
[27] = second compound 3.16 µM, first compound 0.316 µM
[28] = second compound 3.16 µM, first compound 1 µM
[29] = second compound 3.16 µM, first compound 3.16 µM
[30] = second compound 3.16 µM, first compound 10 µM
[31] = second compound 10 µM, first compound 0.0316 µM
[32] = second compound 10 µM, first compound 0.1 µM
[33] = second compound 10 µM, first compound 0.316 µM
[34] = second compound 10 µM, first compound 1 µM
[35] = second compound 10 µM, first compound 3.16 µM
[36] = second compound 10 µM, first compound 10 µM
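Also: spheroids exposed to the agents for one week.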
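For viability, T/C in this document: 100% = DMSO vehicle control wells.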

CC1COCCN1c1cc(C2(O)CC3CCC(C2)O3)c2cnn(-c3ccn[nH]3)c2n1 (stereo unspecified) + Nc1ccc(C#CCN(C(=O)Cc2ncc(C(F)(F)F)cc2C(F)(F)F)c2ccc(F)cc2)nn1
IC50 (second compound 0.0316 µM): 2.08 µM
IC50 (second compound 0.1 µM): 2.16 µM
IC50 (second compound 0.316 µM): 2.27 µM
IC50 (second compound 1 µM): 2.37 µM
IC50 (second compound 3.16 µM): 1.31 µM
IC50 (second compound 10 µM): 0.453 µM
viability, T/C [1]: 102%
viability, T/C [2]: 105%
viability, T/C [3]: 89.1%
viability, T/C [4]: 74.9%
viability, T/C [5]: 35.3%
viability, T/C [6]: 21.3%
viability, T/C [7]: 108%
viability, T/C [8]: 107%
viability, T/C [9]: 98.7%
viability, T/C [10]: 76.7%
viability, T/C [11]: 36.8%
viability, T/C [12]: 16.2%
viability, T/C [13]: 106%
viability, T/C [14]: 102%
viability, T/C [15]: 92.9%
viability, T/C [16]: 75.8%
viability, T/C [17]: 38.9%
viability, T/C [18]: 20.7%
viability, T/C [19]: 105%
viability, T/C [20]: 94.3%
viability, T/C [21]: 89.2%
viability, T/C [22]: 74.7%
viability, T/C [23]: 40.9%
viability, T/C [24]: 14.9%
viability, T/C [25]: 97.8%
viability, T/C [26]: 101%
viability, T/C [27]: 80.4%
viability, T/C [28]: 59.3%
viability, T/C [29]: 26%
viability, T/C [30]: 12.2%
viability, T/C [31]: 99.4%
viability, T/C [32]: 90.9%
viability, T/C [33]: 62.4%
viability, T/C [34]: 22.9%
viability, T/C [35]: 19.4%
viability, T/C [36]: 10.9%

COc1ccc([C@@H](O)c2cc(-c3ncnc4cc(N5CCOCC5)ccc34)c(F)cc2Cl)nn1 + COC1C(OC(N)=O)C(O)C(Oc2ccc3c(O)c(NC(=O)c4ccc(O)c(CC=C(C)C)c4)c(=O)oc3c2C)OC1(C)C
IC50 (second compound 0.0316 µM): > 10 µM
IC50 (second compound 0.1 µM): > 10 µM
IC50 (second compound 0.316 µM): > 10 µM
IC50 (second compound 1 µM): > 10 µM
IC50 (second compound 3.16 µM): > 10 µM
IC50 (second compound 10 µM): > 10 µM
viability, T/C [1]: 95.1%
viability, T/C [2]: 81.3%
viability, T/C [3]: 102%
viability, T/C [4]: 94.9%
viability, T/C [5]: 85.2%
viability, T/C [6]: 58.2%
viability, T/C [7]: 105%
viability, T/C [8]: 92.8%
viability, T/C [9]: 102%
viability, T/C [10]: 79.6%
viability, T/C [11]: 77.8%
viability, T/C [12]: 72.9%
viability, T/C [13]: 110%
viability, T/C [14]: 97%
viability, T/C [15]: 96%
viability, T/C [16]: 85.2%
viability, T/C [17]: 76.6%
viability, T/C [18]: 72.2%
viability, T/C [19]: 96%
viability, T/C [20]: 110%
viability, T/C [21]: 99.5%
viability, T/C [22]: 98.1%
viability, T/C [23]: 85.8%
viability, T/C [24]: 74.8%
viability, T/C [25]: 84.4%
viability, T/C [26]: 93.1%
viability, T/C [27]: 101%
viability, T/C [28]: 87.9%
viability, T/C [29]: 93.6%
viability, T/C [30]: 69.2%
viability, T/C [31]: 86.1%
viability, T/C [32]: 90%
viability, T/C [33]: 107%
viability, T/C [34]: 83.8%
viability, T/C [35]: 88.6%
viability, T/C [36]: 69.8%

O=C(Nc1ccc(O)c(NS(=O)(=O)c2ccc(F)cc2)c1)c1ccc(-c2ccccc2)cc1 + Cc1cccc(N(C)C(=O)C2C(O)CCN2c2nc(C)cc(C(F)(F)F)c2C#N)c1
IC50 (second compound 0.0316 µM): > 10 µM
IC50 (second compound 0.1 µM): > 10 µM
IC50 (second compound 0.316 µM): > 10 µM
IC50 (second compound 1 µM): > 10 µM
IC50 (second compound 3.16 µM): > 10 µM
IC50 (second compound 10 µM): > 10 µM
viability, T/C [1]: 106%
viability, T/C [2]: 104%
viability, T/C [3]: 99.2%
viability, T/C [4]: 101%
viability, T/C [5]: 104%
viability, T/C [6]: 105%
viability, T/C [7]: 104%
viability, T/C [8]: 101%
viability, T/C [9]: 106%
viability, T/C [10]: 100%
viability, T/C [11]: 104%
viability, T/C [12]: 104%
viability, T/C [13]: 98.8%
viability, T/C [14]: 104%
viability, T/C [15]: 97.2%
viability, T/C [16]: 98.6%
viability, T/C [17]: 104%
viability, T/C [18]: 103%
viability, T/C [19]: 99.6%
viability, T/C [20]: 102%
viability, T/C [21]: 101%
viability, T/C [22]: 102%
viability, T/C [23]: 103%
viability, T/C [24]: 104%
viability, T/C [25]: 101%
viability, T/C [26]: 101%
viability, T/C [27]: 97.5%
viability, T/C [28]: 99.6%
viability, T/C [29]: 94.8%
viability, T/C [30]: 102%
viability, T/C [31]: 98.1%
viability, T/C [32]: 99.9%
viability, T/C [33]: 102%
viability, T/C [34]: 93.7%
viability, T/C [35]: 94%
viability, T/C [36]: 97%
